In patent US9150527B2, “Metalloenzyme inhibitor compounds” (Innocrin Pharmaceuticals, Inc., priority 2011, dated 2015) one finds IC50 data, which are given here for one molecule.

For one assay, the target named is CYP2C9 (Homo sapiens (Human), UniProt P11712). The assay is described as follows: biochemical.
The next assay concerns the target CYP17 (Rattus norvegicus (Rat), UniProt P11715). Put plainly: CYP17 metalloenzyme activity, rat testicular microsomes. The conditions noted are these: pooled rat testicular microsomes. It counts as biochemical. The method, then:
CYP17 activity was assayed according to the following procedure.

A further assay concerns the target CYP2C19 (Homo sapiens (Human), UniProt P33261). Put plainly: biochemical.
The target in another assay is CYP3A4 (Homo sapiens (Human), UniProt P08684). The assay is described as follows: Inhibition of liver cytochrome P450 enzymes, pooled human liver microsomes.
Sequence of CYP3A4 (P08684 whole entry): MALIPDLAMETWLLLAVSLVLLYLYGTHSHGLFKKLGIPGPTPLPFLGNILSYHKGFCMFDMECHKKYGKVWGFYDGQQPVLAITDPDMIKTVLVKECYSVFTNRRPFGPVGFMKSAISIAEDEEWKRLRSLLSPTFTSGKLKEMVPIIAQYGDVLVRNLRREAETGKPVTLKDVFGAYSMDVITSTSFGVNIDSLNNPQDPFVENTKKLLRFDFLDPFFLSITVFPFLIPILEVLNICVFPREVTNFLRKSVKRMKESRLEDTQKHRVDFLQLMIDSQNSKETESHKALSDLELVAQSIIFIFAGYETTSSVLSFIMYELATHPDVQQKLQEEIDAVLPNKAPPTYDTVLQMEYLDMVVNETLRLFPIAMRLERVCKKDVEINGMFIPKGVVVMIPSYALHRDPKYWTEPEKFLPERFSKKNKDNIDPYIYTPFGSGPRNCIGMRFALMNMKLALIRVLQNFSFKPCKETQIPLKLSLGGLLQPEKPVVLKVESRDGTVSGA

Sequence of CYP17 (P11715 whole entry): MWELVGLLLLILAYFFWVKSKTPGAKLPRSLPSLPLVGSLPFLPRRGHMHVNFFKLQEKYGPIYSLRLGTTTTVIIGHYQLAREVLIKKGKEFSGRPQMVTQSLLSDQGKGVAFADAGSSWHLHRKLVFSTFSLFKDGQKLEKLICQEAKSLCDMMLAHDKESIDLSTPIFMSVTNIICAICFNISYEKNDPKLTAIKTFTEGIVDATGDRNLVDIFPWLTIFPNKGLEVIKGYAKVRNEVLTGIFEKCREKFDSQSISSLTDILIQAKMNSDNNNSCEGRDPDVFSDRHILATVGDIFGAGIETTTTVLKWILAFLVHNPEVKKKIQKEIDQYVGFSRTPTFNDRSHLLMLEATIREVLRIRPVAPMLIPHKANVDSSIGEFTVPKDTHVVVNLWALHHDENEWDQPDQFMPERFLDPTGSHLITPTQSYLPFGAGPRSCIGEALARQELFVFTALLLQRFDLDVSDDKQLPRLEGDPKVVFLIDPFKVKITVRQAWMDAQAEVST
Sequence of CYP2C9 (P11712 whole entry): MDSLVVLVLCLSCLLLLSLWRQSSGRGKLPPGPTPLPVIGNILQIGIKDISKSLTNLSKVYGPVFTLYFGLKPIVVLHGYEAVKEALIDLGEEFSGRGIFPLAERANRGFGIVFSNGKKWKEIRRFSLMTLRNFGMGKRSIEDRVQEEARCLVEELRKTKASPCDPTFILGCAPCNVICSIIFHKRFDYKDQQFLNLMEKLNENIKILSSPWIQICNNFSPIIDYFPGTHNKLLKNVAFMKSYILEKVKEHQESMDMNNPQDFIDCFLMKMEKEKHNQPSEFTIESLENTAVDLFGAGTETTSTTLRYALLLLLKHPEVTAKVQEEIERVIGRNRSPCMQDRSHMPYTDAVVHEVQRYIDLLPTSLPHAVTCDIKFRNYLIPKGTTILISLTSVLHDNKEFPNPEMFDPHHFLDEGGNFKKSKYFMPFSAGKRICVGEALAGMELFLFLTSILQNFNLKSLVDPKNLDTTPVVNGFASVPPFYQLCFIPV
Sequence of CYP2C19 (P33261 whole entry): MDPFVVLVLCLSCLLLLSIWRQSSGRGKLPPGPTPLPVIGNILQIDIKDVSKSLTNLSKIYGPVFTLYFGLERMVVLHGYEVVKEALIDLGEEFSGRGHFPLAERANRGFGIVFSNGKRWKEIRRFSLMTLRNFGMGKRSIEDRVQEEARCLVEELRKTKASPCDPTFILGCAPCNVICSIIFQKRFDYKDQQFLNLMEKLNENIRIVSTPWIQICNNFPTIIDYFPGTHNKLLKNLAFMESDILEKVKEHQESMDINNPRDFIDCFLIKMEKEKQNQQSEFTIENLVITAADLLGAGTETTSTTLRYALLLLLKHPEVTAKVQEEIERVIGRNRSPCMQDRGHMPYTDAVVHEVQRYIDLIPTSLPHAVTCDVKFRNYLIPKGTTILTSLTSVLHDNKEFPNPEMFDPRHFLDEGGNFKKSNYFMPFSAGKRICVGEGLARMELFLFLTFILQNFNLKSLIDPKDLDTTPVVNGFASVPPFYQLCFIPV

Consider `COc1cc2ccc(C(O)(c3cncs3)C(C)C)cc2cc1OC` (stereo not shown) [Example 2, 1-(6,7-dimethoxynaphthalen-2-yl)-2-methyl-1-(thiazol-5-yl)propan-1-ol], for which the IC50 was 33 µM at CYP2C9, 290 nM against CYP17, 3 µM against CYP2C19 and 770 nM on CYP3A4.
